Among the targets are Serine protease hepsin (Homo sapiens, UniProt P05981); Coagulation factor X (Homo sapiens, UniProt P00742); Prothrombin (Homo sapiens, UniProt P00734); Tryptase beta-2 (Homo sapiens, UniProt P20231).
Common to all, as to test: Enzyme Assay and Determination of the Inhibition Constants
For assay [1], the target named is Tissue-type plasminogen activator (Homo sapiens, UniProt P00750).
The target of assay [2] is Urokinase-type plasminogen activator (Homo sapiens, UniProt P00749).
The next assay addresses Serine protease 1 (Homo sapiens, UniProt P07477). Particulars: pH 7.4; 22 °C.
The next assay has as its target Plasminogen (Homo sapiens, UniProt P00747). Particulars: pH 7.4; 22 °C.
For assay [3], the target named is T1, Urokinase-type plasminogen activator [179-431,I214M,N322A,S371A] (Homo sapiens, UniProt P00749, I214M/N322A/S371A).
T1 construct: 179-431

Where “and” joins values, the source holds several entries; their conditions need not be identical. Identical values can stand only once. Some results are limits rather than exact numbers.

Chain of Tissue-type plasminogen activator (P00750 whole entry): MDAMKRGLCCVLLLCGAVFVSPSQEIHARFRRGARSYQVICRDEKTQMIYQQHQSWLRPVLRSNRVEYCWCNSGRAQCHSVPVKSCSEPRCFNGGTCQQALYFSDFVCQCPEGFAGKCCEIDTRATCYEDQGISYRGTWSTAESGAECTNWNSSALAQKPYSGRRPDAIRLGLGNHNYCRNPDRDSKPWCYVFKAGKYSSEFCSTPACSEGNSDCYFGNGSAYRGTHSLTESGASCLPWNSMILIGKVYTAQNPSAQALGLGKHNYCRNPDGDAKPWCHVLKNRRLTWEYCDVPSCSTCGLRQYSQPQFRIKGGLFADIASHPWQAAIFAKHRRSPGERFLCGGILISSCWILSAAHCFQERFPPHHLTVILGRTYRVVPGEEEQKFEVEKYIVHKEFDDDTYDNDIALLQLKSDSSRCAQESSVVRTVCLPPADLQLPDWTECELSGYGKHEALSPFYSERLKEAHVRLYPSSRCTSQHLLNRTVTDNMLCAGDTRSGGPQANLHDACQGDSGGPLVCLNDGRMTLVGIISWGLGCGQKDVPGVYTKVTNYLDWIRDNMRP
Chain of Serine protease hepsin (P05981 1-162 limits assumed): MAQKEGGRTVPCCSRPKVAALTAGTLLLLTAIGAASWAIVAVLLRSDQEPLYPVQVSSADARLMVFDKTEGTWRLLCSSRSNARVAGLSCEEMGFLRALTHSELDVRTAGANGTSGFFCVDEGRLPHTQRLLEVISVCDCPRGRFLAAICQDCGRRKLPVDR
Chain of Serine protease hepsin (P05981 163-417 limits assumed): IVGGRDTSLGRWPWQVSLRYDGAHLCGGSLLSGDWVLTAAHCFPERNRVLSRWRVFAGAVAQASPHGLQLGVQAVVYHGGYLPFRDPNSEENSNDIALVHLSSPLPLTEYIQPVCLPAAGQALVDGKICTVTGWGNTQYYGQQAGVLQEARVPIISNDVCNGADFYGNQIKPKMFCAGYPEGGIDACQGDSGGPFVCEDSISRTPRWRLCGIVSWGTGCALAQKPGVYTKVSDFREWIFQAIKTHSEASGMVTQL
Chain of Coagulation factor X (P00742 41-179 limits assumed): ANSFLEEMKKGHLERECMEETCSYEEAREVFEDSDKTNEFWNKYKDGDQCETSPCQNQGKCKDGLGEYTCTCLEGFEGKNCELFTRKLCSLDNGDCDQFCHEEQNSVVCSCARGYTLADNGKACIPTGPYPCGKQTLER
Chain of Coagulation factor X (P00742 235-488 limits assumed): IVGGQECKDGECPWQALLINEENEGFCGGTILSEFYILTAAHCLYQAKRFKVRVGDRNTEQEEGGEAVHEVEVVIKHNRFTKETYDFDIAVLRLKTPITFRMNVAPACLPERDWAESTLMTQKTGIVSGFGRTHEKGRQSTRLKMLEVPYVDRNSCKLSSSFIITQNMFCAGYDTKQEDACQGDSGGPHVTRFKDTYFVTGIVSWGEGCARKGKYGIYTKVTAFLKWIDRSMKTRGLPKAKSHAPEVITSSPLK
Chain of Plasminogen (P00747 97-580 limits assumed): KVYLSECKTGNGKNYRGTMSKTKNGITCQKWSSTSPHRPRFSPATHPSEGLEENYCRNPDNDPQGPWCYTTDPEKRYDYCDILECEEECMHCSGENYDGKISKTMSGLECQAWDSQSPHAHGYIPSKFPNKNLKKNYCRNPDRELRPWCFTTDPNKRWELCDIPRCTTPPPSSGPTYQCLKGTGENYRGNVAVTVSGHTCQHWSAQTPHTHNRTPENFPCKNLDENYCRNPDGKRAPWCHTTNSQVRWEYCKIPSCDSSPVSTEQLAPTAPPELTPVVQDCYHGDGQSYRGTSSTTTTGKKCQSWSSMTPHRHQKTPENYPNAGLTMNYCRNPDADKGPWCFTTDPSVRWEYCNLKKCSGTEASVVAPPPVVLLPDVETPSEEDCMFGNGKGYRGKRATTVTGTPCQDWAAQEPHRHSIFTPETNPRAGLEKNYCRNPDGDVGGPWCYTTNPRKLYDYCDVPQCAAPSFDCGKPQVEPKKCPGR
Chain of Plasminogen (P00747 581-810 limits assumed): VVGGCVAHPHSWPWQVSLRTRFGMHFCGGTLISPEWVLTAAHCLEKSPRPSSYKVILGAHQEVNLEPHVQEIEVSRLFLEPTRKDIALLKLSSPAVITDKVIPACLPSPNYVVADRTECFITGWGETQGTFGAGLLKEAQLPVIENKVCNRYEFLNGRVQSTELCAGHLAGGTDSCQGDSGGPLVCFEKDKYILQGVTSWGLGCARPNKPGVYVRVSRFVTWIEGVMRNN
Chain of Serine protease 1 (P07477 whole entry): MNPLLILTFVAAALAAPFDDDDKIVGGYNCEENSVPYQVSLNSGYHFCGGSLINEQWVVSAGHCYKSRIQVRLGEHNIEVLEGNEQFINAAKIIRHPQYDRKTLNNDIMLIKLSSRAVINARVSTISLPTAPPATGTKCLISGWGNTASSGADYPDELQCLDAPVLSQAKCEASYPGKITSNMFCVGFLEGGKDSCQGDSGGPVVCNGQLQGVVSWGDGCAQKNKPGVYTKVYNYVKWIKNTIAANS
Chain of Tryptase beta-2 (P20231 as listed by the source): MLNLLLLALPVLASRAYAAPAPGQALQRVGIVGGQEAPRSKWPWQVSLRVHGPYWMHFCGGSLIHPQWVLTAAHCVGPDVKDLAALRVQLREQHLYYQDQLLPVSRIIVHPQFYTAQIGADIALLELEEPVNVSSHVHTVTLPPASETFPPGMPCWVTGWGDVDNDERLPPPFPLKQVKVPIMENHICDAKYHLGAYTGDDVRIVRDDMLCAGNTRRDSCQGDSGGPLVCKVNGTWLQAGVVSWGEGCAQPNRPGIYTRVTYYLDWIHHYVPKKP

In general, Ki refers to a dissociation constant, usually derived from enzyme kinetics or from competition with a known ligand. High values mean a looser hold on the target, low ones a stronger hold on the target. In the case of `Nc1nc2cc(NC(=O)c3cccc(-c4ccccc4)c3O)ccc2[nH]1` [2-amino-5-[(2-hydroxy-3-phenylbenzene)amido]-1H-1,3-benzodiazol-3-ium], the Ki in assay [1] is 270 µM; in assay [2] it was 4.1 µM; on Serine protease hepsin, above 75 µM; at Coagulation factor X it was above 450 µM; on Serine protease 1 it was 130 µM; at Plasminogen, above 75 µM. On Prothrombin, this molecule showed a Ki above 450 µM.
Turning to `Nc1nc2cc(NC(=O)c3cc4ccccc4cc3O)ccc2[nH]1` [2-amino-5-[(3-hydroxynaphthalene-2-)amido]-1H-1,3-benzodiazol-3-ium], the inhibition constant (Ki) in assay [1] was above 450 µM; in assay [2] it was 4.6 µM and 4.5 µM; on Serine protease hepsin, 2.1 µM; on Coagulation factor X, 200 µM; in assay [3] it was 42 µM; at Serine protease 1, 37 µM. Also, the results for the inhibition constant Ki at Plasminogen and at Prothrombin were above 75 µM and above 450 µM, respectively.
With `CC(C)COc1cccc(-c2nc3ccc(C(=N)N)cc3[nH]2)c1O` [2-{5-[amino(iminiumyl)methyl]-1H-1,3-benzodiazol-2-yl}-6-(2-methylpropoxy)benzen-1-olate], the values for the inhibitory constant (Ki) in [2] and in assay [3] were 0.19 µM and 3.9 µM, respectively.
Take `N=C(N)c1cc2nc(-c3cccc(-c4ccccc4)c3O)[nH]c2cc1F` [2-{5-[amino(iminiumyl)methyl]-6-fluoro-1H-1,3-benzodiazol-2-yl}-6-phenylbenzen-1-olate]: the Ki in assay [2] turned out to be 0.37 µM; in assay [3], 39 µM; on Serine protease 1, 10 µM; on Tryptase beta-2 it was 4.7 µM.
`C[C@H]1CCCC[C@@H]1Oc1cccc(-c2nc3cc(C(=N)N)c(F)cc3[nH]2)c1O` [2-{5-[amino(iminiumyl)methyl]-6-fluoro-1H-1,3-benzodiazol-2-yl}-6-{[(1S,2S)-2-methylcyclohexyl]oxy}benzen-1-olate] yielded an inhibition constant Ki on Tryptase beta-2 of 2.5 µM.
Regarding `N=C(N)c1ccc2nc(-c3cccc(OC4CCCC4)c3O)[nH]c2c1` [CA-06], the Ki in assay [2] stood at 0.19 µM; in assay [3], 4.4 µM.
With `CC(C)COc1cccc(-c2nc3cc(F)c(C(=N)N)cc3[nH]2)c1O` [CA-10], the values for the Ki in assay [2] and in assay [3] were 0.15 µM and 23 µM, respectively.
Consider `N=C(N)c1ccc2[nH]c(-c3cccc(-c4ccccc4)c3O)cc2c1` [CRA-8696], for which the Ki in assay [2] was found to be 0.033 µM; on Serine protease hepsin it was 0.085 µM.
For the molecule `NC(N)=Nc1ccc(NC(=O)c2cc3ccccc3cc2O)cc1` [[amino({4-[(3-hydroxynaphthalene-2-)amido]phenyl}amino)methylidene]azanium], the Ki in assay [1] was 670 µM; in assay [2], 0.62 µM and 0.39 µM; on Serine protease hepsin, 2.6 µM; on Coagulation factor X it was above 450 µM; in [3], 10 µM; at Serine protease 1 it was 16 µM. Also, the results for the inhibition constant Ki at Plasminogen, at Prothrombin and at Tryptase beta-2 were 130 µM, 290 µM and 2 µM, respectively.
Regarding `NC(N)=Nc1ccc(NC(=O)c2cc3ccccc3c(O)c2O)cn1` [[amino({5-[(3,4-dihydroxynaphthalene-2-)amido]pyridin-2-yl}amino)methylidene]azanium], the Ki in [2] was 0.017 µM and 0.041 µM; at Coagulation factor X, 80 µM; in assay [3], 0.28 µM; at Serine protease 1 it was 42 µM; at Plasminogen, 4 µM; at Prothrombin, above 450 µM.
Regarding `N=C(N)Nc1ccc(NC(=O)c2cc3ccccc3cc2O)cn1` [[amino({5-[(3-hydroxynaphthalene-2-)amido]pyridin-2-yl}amino)methylidene]azanium], the Ki in assay [1] is 180 µM; in assay [2], 0.1 µM and 0.2 µM; on Coagulation factor X, 70 µM; in assay [3], 1.1 µM; at Serine protease 1 it was 9.6 µM; on Plasminogen it was 130 µM. Further, the Ki on Prothrombin amounted to 54 µM; on Tryptase beta-2 it was 0.87 µM.

Values taken from BindingDB's records for doi:10.1016/j.jmb.2004.09.032 (Celera, 2004).
